In paper PMC10089971 (British journal of pharmacology, 2023):
Entries after “also recorded” stand apart in the source; their conditions may differ. Structures can show the parent of a compound that is named as a salt.

Key:
[1] = system: MC38 colon adenocarcinoma cells; assay: MC38 subcutaneous tumor model, anti-tumor efficacy of CPT-11; conditions: MC38 s.c. tumors; compared with saline controls
intestinal organoids = assay: Intestinal organoids treated with CPT-11 with or without morphine; conditions: CPT-11 in the presence or absence of morphine
[2] = system: MC38 colon adenocarcinoma cells; conditions: mouse, in vivo
[3] = Analgesic efficacy of morphine with CPT-11; format: in vivo; conditions: CPT-11 co-administration
C57BL/6 mice [4] = assay: CPT-11-induced GI toxicity in mice; conditions: for CPT-11-induced tissue damage in the ileum (histological score): co-administered with CPT-11 75 mg/kg, compared with CPT-11 alone
C57BL/6 mice [5] = assay: Intestinal transit time with 70-kDa FITC-dextran; format: in vivo; conditions: compared to saline-treated mice
carboxylesterase (CES) = conditions: ref Quinney et al., 2005; cited from earlier work

CCc1c2c(nc3ccc(OC(=O)N4CCC(N5CCCCC5)CC4)cc13)-c1cc3c(c(=O)n1C2)COC(=O)[C@]3(O)CC [CPT-11, Irinotecan hydrochloride]
reduction of tumor sizes [1]: 41.6% | growth of intestinal organoids (intestinal organoids): inhibited the growth of crypt stem cells | body weight loss in tumor-bearing mice [2]: induced weight loss | analgesic efficacy of morphine [3]: didn’t affect the analgesic efficacy of morphine

CCOc1ccc(NC(=S)N(CCO)Cc2cc3cc(C)cc(C)c3[nH]c2=O)cc1 [Inh-1, 1-((6,8-Dimethyl-2-oxo-1,2-dihydroquinolin-3-yl)methyl)-3-(4-ethoxyphenyl)-1-(2-hydroxyethyl)thiourea]
intestinal epithelial damage (ileal histology) (C57BL/6 mice [4]; Inh-1 in morphine + CPT-11-treated mice): rescued the intestinal epithelial damage observed with morphine and CPT-11

Clc1cccc(Cl)c1N=C1NCCN1 [clonidine, Clonidine hydrochloride]
gut transit time (C57BL/6 mice [5]): significantly prolonged gut transit time

CN(C)C(=O)C(CCN1CCC(O)(c2ccc(Cl)cc2)CC1)(c1ccccc1)c1ccccc1 [loperamide, Loperamide]
carboxylesterase inhibition (carboxylesterase (CES)): inhibitor of carboxylesterase (CES) | CPT-11-induced tissue damage in the ileum (histological score) (C57BL/6 mice [4]): did not significantly exacerbate small intestinal tissue damage | weight loss (C57BL/6 mice [4]; oral loperamide + CPT-11 vs CPT-11): did not significantly exacerbate

CN1CC[C@]23c4c5ccc(O)c4O[C@H]2[C@@H](O)C=C[C@H]3[C@H]1C5 [morphine, Morphine sulfate]
growth of intestinal organoids (intestinal organoids): did not show any direct effects on CPT-11-treated organoids | gut transit time (C57BL/6 mice [5]): significantly prolonged gut transit time | CPT-11-induced tissue damage in the large intestine (C57BL/6 mice [4]; co-administered with CPT-11): showed no effects on CPT-11-induced tissue damage | CPT-11-induced tissue damage in the ileum (histological score) (C57BL/6 mice [4]): potentiated CPT-11-induced tissue damage in the ileum; also recorded: significantly potentiated CPT-11-induced tissue damage in the small intestines
